Measurements published in patent US8822526B2, “Synergistic pharmaceutical combination for the treatment of cancer” (Piramal Enterprises Limited, priority 2007, dated 2014).

Assays:
[1] = tested on: human non-small cell lung carcinoma H-460; test: Analysis of cell cycle distribution and flow cytometry (sub G1 apoptosis); type: cell-based
Procedure: The human non-small cell lung carcinoma H-460 was seeded in 25 mm^3 tissue culture flasks. […] The control cells were left untreated for 96 hours or 120 hours. Both detached and adherent cells were harvested at different time points. The cells were washed twice with approximately 5 mL of PBS with centrifugation at 1000 rpm for 10 minutes. The cells were re-suspended in 500 μL of PBS and fixed in 500 μL ice-cold 70% ethanol. The fixed cells were incubated at room temperature for 30 minutes, spun at 1000 rpm for 10 minutes. To the cell pellet 1 mL of chilled 70% ethanol was added and the cell pellet was then kept in fridge till further analysis. Cells were washed twice with PBS to remove fixative and re-suspended in 250 μL PBS. To this 50 μL of propidium iodide (4 mg/mL in PBS) and 12.5 μL Rnase A (1 mg/mL) was added. After incubation at 37° C. for 30 minutes, cells were analyzed using flow cytometry.
A Becton Dickinson FACS Calibur flow cytometer was used in accordance with the manufacturer's recommendations. The argon ion laser set at 488 nm was used as an excitation source. Cells with DNA content between 2n and 4n were designated as being in G1, S and G2/M phases of the cell cycle, as defined by the level of red fluorescence. […] The number of cells in each cell cycle compartment was expressed as a percentage of the total number of cells present
About 1-2×10^6 cells were seeded in a tissue culture flask for the treatment groups. The assay protocol was as mentioned above in “analysis of cell cycle distribution and flow cytometry”. The cell cycle was divided in four parts, which are represented in the FIG. 1 as M1, M2, M3 and M4. M1 corresponds to the G1 phase, M2 to the S phase, M3 to the G2-M phase and M4 to the sub G1 phase, which represents the cells undergoing apoptosis.
About 1-2×10^6 cells were seeded in a tissue culture flask for the treatment groups. The assay protocol was as mentioned above in “analysis of cell cycle distribution and flow cytometry”. The cell cycle was divided in four parts, which are represented in the figure as M1, M2, M3 and M4. M1 corresponds to the G1 phase, M2 to the S phase, M3 to the G2-M phase and M4 to the sub G1 phase, which represents the cells undergoing apoptosis.

[2] = tested on: human non-small cell lung carcinoma H-460; test: Annexin V-FITC staining (detection of early apoptosis); type: cell-based; details: doxorubicin 100 nM 24 hours; compound A 1200 nM 96 hours; combination doxorubicin 24 hours followed by compound A 96 hours
Procedure: Annexin V-FITC is a sensitive probe for identifying apoptotic cells. During early apoptosis the membrane phospholipid phosphotidyl serine (PS) is translocated from the inner to the outer leaflet of the plasma membrane, thereby exposing PS to the external cellular environment. Annexin V is a 35-36 kDa Calcium phospholipid binding protein that has a high affinity for PS and binds to cells with exposed PS. […] The human non-small cell lung carcinoma H-460 was seeded in 25 mm^3 tissue culture flasks. […] The control cells were left untreated for 120 hours. Medium containing floating cells were collected and pooled with the adherent cells after harvesting with trypsin at the different time points. The cells were washed twice with cold PBS with centrifugation at 1000 rpm for 10 minutes. The cell pellet was resuspended in 1× binding buffer (10 mm HEPES pH 7.4, 140 mM NaCl, 2.5 mM CaCl2) at a concentration of 1×10^6 cells/mL. 100 μl of the solution (1×10^5 cells) were stained with Annexin V-FITC and Propidium Iodide. The cells were incubated for 15 minutes at room temperature in the dark and the sample was analysed by flow cytometry. A Becton Dickinson FACS Calibur flow cytometer was used for these studies in accordance with the manufacturer's recommendations. The argon ion laser set at 488 nm was used as an excitation source. […] If the cells even after the termination of compound exposure continue to go into apoptosis, they would stain positive for annexin. The cells once in early apoptosis are committed to programmed cell death and at a point of no return.

Cdk1 = test: Western blot analysis; type: cell-based, human; details: H-460; doxorubicin 100 nM 24 hours; compound A 1200 nM 96 hours; combination sequential; FIG. 6
Procedure: (§1) At the end of the treatment period cells were lysed and protein content of the lysate was estimated using the Bradford reagent. 40 μg of protein was loaded on SDS-PAGE and transferred on PVDF membrane. The membranes were probed with p53, Bax, Bcl-2, cyclin D1, Cdk1 and actin antibodies. The primary antibody were detected with horseradish […] secondary antibody and subjected to west pico chemiluminescence reagents.
(§2) Equal amount of protein was loaded in the four lanes. The different samples loaded in the wells are described in the figure legend. […] This correlates with the increased apoptosis seen in the combination treatment in FACS analysis. The pro-apoptotic protein Bax is slightly up regulated with respect to control in all treatment samples. […] Cdk1-B1 is an initiator of mitosis. The deregulation of this enzyme leads to tumorigenesis.

cyclin D1 = test: Western blot analysis; type: cell-based, human; details: H-460; doxorubicin 100 nM 24 hours; compound A 1200 nM 96 hours; combination sequential; FIG. 6
Procedure: as §1, §2

[3] = FIG. 1: 200 nM doxorubicin alone (24 hours), 800 nM compound A alone (72 hours), combination 200 nM doxorubicin (24 hours) followed by 800 nM compound A (72 hours)
[4] = FIG. 2: 100 nM doxorubicin alone (24 hours), 1200 nM compound A alone (96 hours), combination 100 nM doxorubicin (24 hours) followed by 1200 nM compound A (96 hours)

SMILES	apoptosis (sub G1 phase) [1, 3]	apoptosis (sub G1 phase) [1, 4]	Annexin + ve (%) (cells in early apoptosis) [2]	Annexin and PI + ve (%) (cells in early to late apoptosis) [2]	Live cells (%) (healthy cells) [2]	PI + ve (%) (dead cells) [2]	Cdk1 levels (western blot) (Cdk1)	Cyclin D1 levels (western blot) (cyclin D1)
COc1cccc2c1C(=O)c1c(O)c3c(c(O)c1C2=O)C[C@@](O)(C(=O)CO)C[C@@H]3O[C@H]1C[C@H](N)[C@H](O)[C@H](C)O1 [Doxorubicin]	10%	3%	30.4%	8.6%	60%	1%	significantly induces Cdk1 levels	slight reduction
CN1CC[C@@H](c2c(O)cc(O)c3c(=O)cc(-c4ccccc4Cl)oc23)[C@@H]1CO.Cl [Compound A, (+)-trans-2-(2-Chloro-phenyl)-5,7-dihydroxy-8-(2-hydroxymethyl-1-methyl-pyrrolidin-3-yl)-chromen-4-one hydrochloride]	10%	32%	38.5%	8.2%	53%	0.3%	levels equal to control	slight reduction
